From patent US20220380342A1, “BIPHENYL DERIVATIVES FOR BLOCKING PD-1/PD-L1 INTERACTION, PREPARATION METHOD THEREFOR AND USE THEREOF” (Abbisko Therapeutics Co., Ltd., priority 2019, published 2022)

How the values were obtained:
[1] = target: T1, interaction between PD-1 and PD-L1 expressed on cell surfaces (Jurkat/NF-κB-luc/PD1 cells cocultured with Raji-PD-L1 cells) (Homo sapiens, UniProt Q9NZQ7); test: Jurkat reporter gene cellular assay; type: cell-based; settings: OKT3 1 μg/mL stimulation, 6 hrs, activation fold vs DMSO
T1 construct: expressed in transfected cells; host or cells: Raji cells (PD-L1); Jurkat cells (PD-1, NF-κB-luc reporter)
Method: The effect of compounds of the examples of the present invention on the interaction between PD-1 and PD-L1 expressed on cell surfaces, and the related influence on T cell functions, were determined by a Jurkat reporter gene cellular assay.
Briefly, the reporter gene plasmid of NF-κB-luc and the plasmid of human PD-1 were transfected into Jurkat cells to establish a stably transfected cell line capable of stably expressing both PD-1 and NF-κB-Luc reporter genes; the expression level of PD-1 on the cell surface was confirmed by flow cytometry; and the expression of the reporter gene was confirmed via the response of the reporter gene stimulated by OKT-3 and Raji cells.
In addition, the plasmid of human PD-L1 was transfected into Raji cells to obtain a cell line capable of stably expressing PD-L1. Jurkat/NF-κB-luc/PD1 cells and Raji-PD-L1 cells were then cocultured and stimulated with OKT-3. On this basis, the compounds were added, and the enhancement of the signal pathway of T cell activation by the inhibitory effect of the compounds on the interaction between PD-1 and PD-L1 was evaluated by readings of reporter gene responses. The specific experimental process was as follows:
1) 30 μL of compound or antibody solution was added to each well of a white 96-well plate (Corning, 3610) at different diluted concentrations, and 10 μL of OKT3 (Biolegend, 317326) was then added (the final concentration of OKT3: 1 μg/mL);
2) 20 μL of Raji-PD-L1 cell suspension was added to each well with 5*10^4 cells for each well, and was incubated in an incubator for 20 min;
3) 20 μL of Jurkat/NF-Kb-luc/PD-1 cell suspension was added to each well with 5*10^4 cells for each well, and was well mixed, and 6 hrs later, Bright-glo (Promega, E2620) was applied and plates were read on Envision;
4) The reading of each well treated with the compound was compared with the reading of each well treated with DMSO to obtain the activation fold of the compound; and
5) EC50 values of compounds of the examples of the present invention were determined by non-linear regression analysis of activation folds at different compound concentrations.

[2] = target: T2, interaction between PD-1 and PD-L1 (Homo sapiens, UniProt Q9NZQ7); test: PD1-PDL1 HTRF binding activity test; settings: Cisbio PD-1/PD-L1 binding assay kit; percent inhibition vs DMSO
T2 construct: purchased Cisbio 64ICP01PEG or 64ICP01PEH
Method: The effect of compounds of the examples of the present invention on the interaction between PD-1 and PD-L1 was determined by the PD-1/PD-L1 binding assay kit from Cisbio (#64ICP01PEG or 64ICP01PEH). The detailed experimental process was as follows:
1) Pre-diluted compound solution, 4 μL of Tag1-PD-L1 and 4 μL of Tag2-PD1 were added to each well of a 384-well plate;
2) After the mixture was incubated at room temperature for 15 min, 5 μL of anti-Tag1-Eu3+ antibody and 5 μL of anti-Tag2-XL665 antibody were then added;
3) After incubated for 2 hrs at room temperature or overnight at 4° C., plates were read on Envision of Perkin Elmer; and readings at 665 nm and 620 nm were recorded, and the ratio of the two readings was taken as a reading for each well;
4) The reading of each well after compound treatment was compared with the reading of DMSO treated wells to obtain the percent inhibition of the compound; and
5) IC50 values of compounds of the examples of the present invention were determined by non-linear regression analysis of percent inhibition at different compound concentrations.

T1 sequence (Q9NZQ7 19-290): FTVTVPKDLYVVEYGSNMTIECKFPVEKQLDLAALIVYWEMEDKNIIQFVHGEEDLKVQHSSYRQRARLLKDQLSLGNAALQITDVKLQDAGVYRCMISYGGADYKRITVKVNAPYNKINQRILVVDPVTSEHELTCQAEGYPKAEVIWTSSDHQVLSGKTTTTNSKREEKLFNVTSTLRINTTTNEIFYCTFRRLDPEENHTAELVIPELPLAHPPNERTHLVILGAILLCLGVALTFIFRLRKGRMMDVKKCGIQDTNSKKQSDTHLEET
T2 sequence (Q9NZQ7 19-238 limits assumed): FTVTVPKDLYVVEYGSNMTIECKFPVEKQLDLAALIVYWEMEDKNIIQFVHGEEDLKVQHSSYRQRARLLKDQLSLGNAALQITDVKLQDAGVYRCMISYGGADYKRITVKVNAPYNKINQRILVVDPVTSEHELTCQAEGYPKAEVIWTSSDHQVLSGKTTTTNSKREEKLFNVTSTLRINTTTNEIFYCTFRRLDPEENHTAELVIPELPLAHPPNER

SMILES | EC50 [1] [nM] | IC50 [2] [nM]
Cc1c(NC(=O)c2cc(C3CC3)c(CN3CC[C@@H](O)C3)cn2)cccc1-c1cccc(NC(=O)c2cc(C3CC3)c(CN3CCCC[C@H]3C(=O)O)cn2)c1C [Example 13, (S)-1-((4-cyclopropyl-6-((3′-(4-cyclopropyl-5-(((R)-3-hydroxypyrrolidin-1-yl)methyl)picolinamido)-2,2′-dimethyl-[1,1′-biphenyl]-3-yl)carbamoyl)pyridin-3-yl)methyl)piperidine-2-carboxylic acid] | 11.8 | 1.48
Cc1c(NC(=O)c2cc(C3CC3)c(CN[C@@H](C)CO)cn2)cccc1-c1cccc(NC(=O)c2cc(C3CC3)c(CN[C@H](CO)C(=O)O)cn2)c1C [Example 39, ((4-cyclopropyl-6-((3′-(4-cyclopropyl-5-((((S)-1-hydroxypropan-2-yl)amino)methyl)picolinamido)-2,2′-dimethyl-[1,1′-biphenyl]-3-yl)carbamoyl)pyridin-3-yl)methyl)-D-serine] | 36 | 1.89
Cc1c(NC(=O)c2cc(C3CC3)c(CNCCO)cn2)cccc1-c1cccc(NC(=O)c2cc(C3CC3)c(CN[C@@H](CO)C(=O)O)cn2)c1C [Example 37, ((4-cyclopropyl-6-((3′-(4-cyclopropyl-5-(((2-hydroxyethyl)amino)methyl)picolinamido)-2,2′-dimethyl-[1,1′-biphenyl]-3-yl)carbamoyl)pyridin-3-yl)methyl)-L-serine] | 25.2 | 0.95
Cc1c(NC(=O)c2cc(C3CC3)c(CN[C@H]3CCC[C@@H]3O)cn2)cccc1-c1cccc(NC(=O)c2cc(C3CC3)c(CN3CCCC[C@H]3C(=O)O)cn2)c1C [Example 4, (S)-1-((4-cyclopropyl-6-((3′-(4-cyclopropyl-5-((((1S,2S)-2-hydroxycyclopentyl)amino)methyl)picolinamido)-2, 2′-dimethyl-[1,1′-biphenyl]-3-yl)carbamoyl)pyridin-3-yl)methyl)piperidine-2-carboxylic acid] | 3.2 | 1.02
Cc1c(NC(=O)c2cc(C3CC3)c(CN[C@H](CO)C(=O)O)cn2)cccc1-c1cccc(NC(=O)c2cc(C3CC3)c(CN3CCC[C@@H]3CO)cn2)c1C [Example 55] | 99.5 | 3.18

Other lines, results leading:

EC50 [1] [nM] | IC50 [2] [nM] | SMILES
42.6 | 2.57 | CCOC(=O)[C@H](CO)NCc1cnc(C(=O)Nc2cccc(-c3cccc(NC(=O)c4cc(C5CC5)c(CN5CCCC[C@H]5C(=O)O)cn4)c3C)c2C)cc1C1CC1 [Example 31, (S)-1-((4-cyclopropyl-6-((3′-(4-cyclopropyl-5-((((S)-1-ethoxy-3-hydroxy-1-oxopropan-2-yl)amino)methyl)picolinamido)-2,2′-dimethyl-[1,1′-biphenyl]-3-yl)carbamoyl)pyridin-3-yl)methyl) piperidine-2-carboxylic acid]
33.9 | 5.1 | Cc1c(NC(=O)c2cc(C3CC3)c(CNC(C)C)cn2)cccc1-c1cccc(NC(=O)c2cc(C3CC3)c(CN3CCCC[C@H]3C(=O)O)cn2)c1C [Example 9, (S)-1-((4-cyclopropyl-6-((3′-(4-cyclopropyl-5-((isopropylamino)methyl)picolinamido)-2,2′-dimethyl-[1,1′-biphenyl]-3-yl)carbamoyl)pyridin-3-yl)methyl) piperidine-2-carboxylic acid]
9.2 | 1.21 | Cc1c(NC(=O)c2cc(C3CC3)c(CN[C@H](C)CO)cn2)cccc1-c1cccc(NC(=O)c2cc(C3CC3)c(CN3CCCC[C@H]3C(=O)O)cn2)c1C [Example 2, (S)-1-((4-cyclopropyl-6-((3′-(4-cyclopropyl-5-((((R)-1-hydroxypropan-2-yl)amino)methyl)picolinamido)-2,2′-dimethyl-[1,1′-biphenyl]-3-yl)carbamoyl)pyridin-3-yl)methyl)piperidine-2-carboxylic acid]
24.1 | 0.49 | CNCc1cnc(C(=O)Nc2cccc(-c3cccc(NC(=O)c4cc(C5CC5)c(CN5CCCC[C@H]5C(=O)O)cn4)c3C)c2C)cc1C1CC1 [Example 7, (S)-1-((4-cyclopropyl-6-((3′-(4-cyclopropyl-5-((methylamino)methyl)picolinamido)-2,2′-dimethyl-[1,1′-biphenyl]-3-yl)carbamoyl)pyridin-3-yl)methyl) piperidine-2-carboxylic acid]
